Results taken from ChEMBL document CHEMBL4145553, “Design, synthesis, and biological evaluation of novel amide and hydrazide based thioether analogs targeting Histone deacteylase (HDAC) enzymes” (Eur J Med Chem, 2018).

What was measured:
[1] = system: NCI-H460; assay: Growth inhibition of human NCI-H460 cells assessed as cell growth at 10^-8 M incubated for 48 hrs by sulforhodamine B assay relative to control; type: functional; settings: NCI-H460, 48 h, read-out: Activity
[2] = system: SF-295; assay: Growth inhibition of human SF295 cells assessed as cell growth at 10^-8 M incubated for 48 hrs by sulforhodamine B assay relative to control; type: functional; settings: SF-295, 48 h, read-out: Activity
[3] = system: SF-539; assay: Growth inhibition of human SF539 cells assessed as cell growth at 10^-8 M incubated for 48 hrs by sulforhodamine B assay relative to control; type: functional; settings: SF-539, 48 h, read-out: Activity
[4] = system: UACC-62; assay: Growth inhibition of human UACC62 cells assessed as cell growth at 10^-8 M incubated for 48 hrs by sulforhodamine B assay relative to control; type: functional; settings: UACC-62, 48 h, read-out: Activity
[5] = system: T47D; assay: Growth inhibition of human T47D cells assessed as cell growth at 10^-8 M incubated for 48 hrs by sulforhodamine B assay relative to control; type: functional; settings: read-out: Activity
[6] = system: NCI-H460; assay: Growth inhibition of human NCI-H460 cells assessed as cell growth at 10^-7 M incubated for 48 hrs by sulforhodamine B assay relative to control; type: functional; settings: NCI-H460, 48 h, read-out: Activity
[7] = system: SK-MEL-2; assay: Growth inhibition of human SK-MEL-2 cells assessed as cell growth at 10^-7 M incubated for 48 hrs by sulforhodamine B assay relative to control; type: functional; settings: SK-MEL-2, 48 h, read-out: Activity
[8] = system: SK-MEL-28; assay: Growth inhibition of human SK-MEL-28 cells assessed as cell growth at 10^-7 M incubated for 48 hrs by sulforhodamine B assay relative to control; type: functional; settings: SK-MEL-28, 48 h, read-out: Activity
[9] = system: OVCAR-5; assay: Growth inhibition of human OVCAR5 cells assessed as cell growth at 10^-7 M incubated for 48 hrs by sulforhodamine B assay relative to control; type: functional; settings: OVCAR-5, 48 h, read-out: Activity
[10] = system: EKVX; assay: Growth inhibition of human EKVX cells assessed as cell growth at 10^-6 M incubated for 48 hrs by sulforhodamine B assay relative to control; type: functional; settings: read-out: Activity
[11] = system: COLO 205; assay: Growth inhibition of human COLO205 cells assessed as cell growth at 10^-6 M incubated for 48 hrs by sulforhodamine B assay relative to control; type: functional; settings: COLO 205, 48 h, read-out: Activity
[12] = system: SNB-19; assay: Growth inhibition of human SNB19 cells assessed as cell growth at 10^-6 M incubated for 48 hrs by sulforhodamine B assay relative to control; type: functional; settings: SNB-19, 48 h, read-out: Activity
[13] = system: DU-145; assay: Growth inhibition of human DU145 cells assessed as cell growth at 10^-6 M incubated for 48 hrs by sulforhodamine B assay relative to control; type: functional; settings: DU-145, 48 h, read-out: Activity
[14] = system: MDA-MB-231; assay: Growth inhibition of human MDA-MB-231 cells assessed as cell growth at 10^-6 M incubated for 48 hrs by sulforhodamine B assay relative to control; type: functional; settings: MDA-MB-231, 48 h, read-out: Activity
[15] = system: HCC 2998; assay: Growth inhibition of human HCC2998 cells assessed as cell growth at 10^-5 M incubated for 48 hrs by sulforhodamine B assay relative to control; type: functional; settings: HCC 2998, 48 h, read-out: Activity
[16] = system: SNB-75; assay: Growth inhibition of human SNB75 cells assessed as cell growth at 10^-5 M incubated for 48 hrs by sulforhodamine B assay relative to control; type: functional; settings: SNB-75, 48 h, read-out: Activity
[17] = system: UACC-257; assay: Growth inhibition of human UACC257 cells assessed as cell growth at 10^-5 M incubated for 48 hrs by sulforhodamine B assay relative to control; type: functional; settings: UACC-257, 48 h, read-out: Activity
[18] = system: MDA-MB-468; assay: Growth inhibition of human MDA-MB-468 cells assessed as cell growth at 10^-5 M incubated for 48 hrs by sulforhodamine B assay relative to control; type: functional; settings: MDA-MB-468, 48 h, read-out: Activity
[19] = system: HCT-116; assay: Growth inhibition of human HCT116 cells assessed as cell growth at 10^-4 M incubated for 48 hrs by sulforhodamine B assay relative to control; type: functional; settings: HCT-116, 48 h, read-out: Activity
[20] = system: OVCAR-4; assay: Growth inhibition of human OVCAR4 cells assessed as cell growth at 10^-4 M incubated for 48 hrs by sulforhodamine B assay relative to control; type: functional; settings: OVCAR-4, 48 h, read-out: Activity
[21] = system: OVCAR-8; assay: Growth inhibition of human OVCAR8 cells assessed as cell growth at 10^-4 M incubated for 48 hrs by sulforhodamine B assay relative to control; type: functional; settings: OVCAR-8, 48 h, read-out: Activity
[22] = system: RPMI-8226; assay: Growth inhibition of human RPMI8226 cells incubated for 48 hrs by sulforhodamine B assay; type: functional; settings: RPMI-8226, 48 h
[23] = system: COLO 205; assay: Growth inhibition of human COLO205 cells incubated for 48 hrs by sulforhodamine B assay; type: functional; settings: COLO 205, 48 h
[24] = system: IGROV-1; assay: Growth inhibition of human IGROV1 cells incubated for 48 hrs by sulforhodamine B assay; type: functional; settings: IGROV-1, 48 h
[25] = system: OVCAR-3; assay: Growth inhibition of human OVCAR3 cells incubated for 48 hrs by sulforhodamine B assay; type: functional; settings: OVCAR-3, 48 h
[26] = system: SK-OV-3; assay: Growth inhibition of human SKOV3 cells incubated for 48 hrs by sulforhodamine B assay; type: functional; settings: SK-OV-3, 48 h
[27] = system: MDA-MB-435; assay: Cell cycle arrest in human MDA-MB-435 cells assessed as accumulation at G1-phase by propidium iodide staining based flow cytometry (reference value: 69.15%); type: functional
[28] = system: MDA-MB-435; assay: Cell cycle arrest in human MDA-MB-435 cells assessed as accumulation at S-phase by propidium iodide staining based flow cytometry (reference value: 26.46%); type: functional
[29] = biological target: Histone deacetylase 2 (Homo sapiens, UniProt Q92769); assay: Inhibition of human HDAC2 by ELISA
Histone deacetylase 2, sequence (Q92769 whole entry): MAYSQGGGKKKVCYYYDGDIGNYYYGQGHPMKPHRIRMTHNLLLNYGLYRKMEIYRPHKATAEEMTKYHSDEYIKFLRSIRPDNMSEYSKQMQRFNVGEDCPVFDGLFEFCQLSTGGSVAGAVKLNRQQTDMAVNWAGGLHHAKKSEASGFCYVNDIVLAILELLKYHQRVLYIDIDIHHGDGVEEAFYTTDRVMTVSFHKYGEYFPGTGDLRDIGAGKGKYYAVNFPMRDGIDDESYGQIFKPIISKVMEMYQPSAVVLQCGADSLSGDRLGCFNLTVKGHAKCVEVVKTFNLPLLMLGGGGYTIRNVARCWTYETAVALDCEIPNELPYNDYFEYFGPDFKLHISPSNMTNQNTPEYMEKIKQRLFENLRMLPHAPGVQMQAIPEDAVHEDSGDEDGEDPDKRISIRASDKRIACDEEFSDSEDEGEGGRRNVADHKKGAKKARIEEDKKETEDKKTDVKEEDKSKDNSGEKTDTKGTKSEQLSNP

[30] = biological target: Histone deacetylase 3 (Homo sapiens, UniProt O15379); assay: Inhibition of HDAC3 (unknown origin) by ELISA
Histone deacetylase 3, sequence (O15379 whole entry): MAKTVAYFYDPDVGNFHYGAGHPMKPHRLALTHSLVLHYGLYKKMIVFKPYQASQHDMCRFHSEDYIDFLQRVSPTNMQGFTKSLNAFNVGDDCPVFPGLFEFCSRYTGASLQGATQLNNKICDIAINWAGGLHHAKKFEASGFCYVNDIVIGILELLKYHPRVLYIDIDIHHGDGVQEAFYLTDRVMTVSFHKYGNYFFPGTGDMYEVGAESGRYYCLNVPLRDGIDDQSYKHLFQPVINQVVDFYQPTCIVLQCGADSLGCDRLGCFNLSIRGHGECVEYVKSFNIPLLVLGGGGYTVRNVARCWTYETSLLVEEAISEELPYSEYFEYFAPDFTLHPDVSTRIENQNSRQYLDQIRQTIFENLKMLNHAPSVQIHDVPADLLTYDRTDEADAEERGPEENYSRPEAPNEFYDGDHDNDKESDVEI

[31] = read-out: LC50 (the source's name)
[32] = read-out: pLC50 (the source's name) (converted)

Compound `CCS/C(Nc1ccccc1)=C(\C#N)C(=O)Nc1ccc(OC)cc1` has a growth at 0.01 µM [1] of 105%, a growth at 0.01 µM [2] of 94% and a growth at 0.01 µM [3] of 94%. It also gave a growth at 0.01 µM [4] of 93%, a growth at 0.01 µM [5] of 99% and a growth at 0.1 µM [6] of 98%. For the same compound, the growth at 0.1 µM [7] was 102%, the growth at 0.1 µM [8] was 91% and the growth at 0.1 µM [9] was 95%. It also gave a growth at 1 µM [10] of 84%, a growth at 1 µM [11] of 96% and a growth at 1 µM [12] of 84%. For the same compound, the growth at 1 µM [13] was 93%, the growth at 1 µM [14] was 93% and the growth at 10 µM [15] was 41%. The growth at 10 µM [16] was -13%, the growth at 10 µM [17] was 56% and the growth at 10 µM [18] was -9%. For the same compound, the growth at 100 µM [19] was -11%, the growth at 100 µM [20] was 29% and the growth at 100 µM [21] was 10%. For the same compound, the GI50 ([22]; read-out: GI50) was 2.52 µM, the CC50 [22, 31] was over 100 µM and the TGI ([22]; read-out: TGI) was over 100 µM. The GI50 ([22]; read-out: pGI50 (converted)) was 2.51 µM, the CC50 [22, 32] was over 100 µM and the TGI ([22]; read-out: pTGI) was over 100 µM. The GI50 ([23]; read-out: GI50) was 3.06 µM, the CC50 [23, 31] was over 100 µM and the TGI ([23]; read-out: TGI) was 11.2 µM. It also gave a GI50 ([23]; read-out: pGI50 (converted)) of 3.09 µM, a CC50 [23, 32] of over 100 µM and a TGI ([23]; read-out: pTGI (converted)) of 11.2 µM. For the same compound, the GI50 ([24]; read-out: GI50) was 5.3 µM, the CC50 [24, 31] was over 100 µM and the TGI ([24]; read-out: TGI) was over 100 µM. The GI50 ([24]; read-out: pGI50 (converted)) was 5.25 µM, the CC50 [24, 32] was over 100 µM and the TGI ([24]; read-out: pTGI) was over 100 µM. The GI50 ([25]; read-out: GI50) was 2.61 µM, the CC50 [25, 31] was over 100 µM and the TGI ([25]; read-out: TGI) was 8.59 µM. For the same compound, the GI50 ([25]; read-out: pGI50 (converted)) was 2.63 µM, the CC50 [25, 32] was over 100 µM and the TGI ([25]; read-out: pTGI (converted)) was 8.51 µM. The GI50 ([26]; read-out: GI50) was 3.28 µM, the CC50 [26, 31] was over 100 µM and the TGI ([26]; read-out: TGI) was 50.2 µM. The GI50 ([26]; read-out: pGI50 (converted)) was 3.31 µM, the CC50 [26, 32] was over 100 µM and the TGI ([26]; read-out: pTGI (converted)) was 50.1 µM. The Activity [27] was 51.68%, the Activity [28] was 19.26% and the IC50 [29] was 0.032 µM. It also gave an IC50 [30] of 0.064 µM.

Work on `CCS/C(Nc1ccccc1)=C(\C#N)C(=O)N/N=C\c1ccc(Cl)cc1Cl` yielded a growth at 0.01 µM [1] of 100%, a growth at 0.01 µM [2] of 95% and a growth at 0.01 µM [3] of 105%. It also gave a growth at 0.01 µM [4] of 92%, a growth at 0.01 µM [5] of 102% and a growth at 0.1 µM [6] of 98%. The growth at 0.1 µM [7] was 101%, the growth at 0.1 µM [8] was 95% and the growth at 0.1 µM [9] was 96%. The growth at 1 µM [10] was 87%, the growth at 1 µM [11] was 99% and the growth at 1 µM [12] was 86%. For the same compound, the growth at 1 µM [13] was 97%, the growth at 1 µM [14] was 89% and the growth at 10 µM [15] was 33%. For the same compound, the growth at 10 µM [16] was -2%, the growth at 10 µM [17] was 61% and the growth at 10 µM [18] was -3%. The growth at 100 µM [19] was 3%, the growth at 100 µM [20] was 9% and the growth at 100 µM [21] was 20%. The GI50 ([22]; read-out: GI50) was 3.68 µM, the CC50 [22, 31] was over 100 µM and the TGI ([22]; read-out: TGI) was over 100 µM. For the same compound, the GI50 ([22]; read-out: pGI50 (converted)) was 3.72 µM, the CC50 [22, 32] was over 100 µM and the TGI ([22]; read-out: pTGI) was over 100 µM. The GI50 ([23]; read-out: GI50) was 3.09 µM, the CC50 [23, 31] was over 100 µM and the GI50 ([23]; read-out: pGI50 (converted)) was 3.09 µM. It also gave a CC50 [23, 32] of over 100 µM, a GI50 ([24]; read-out: GI50) of 6.46 µM and a CC50 [24, 31] of over 100 µM. For the same compound, the TGI ([24]; read-out: TGI) was over 100 µM, the GI50 ([24]; read-out: pGI50 (converted)) was 6.46 µM and the CC50 [24, 32] was over 100 µM. The TGI ([24]; read-out: pTGI) was over 100 µM, the GI50 ([25]; read-out: GI50) was 2.8 µM and the CC50 [25, 31] was over 100 µM. It also gave a TGI ([25]; read-out: TGI) of 10.8 µM, a GI50 ([25]; read-out: pGI50 (converted)) of 2.82 µM and a CC50 [25, 32] of over 100 µM. For the same compound, the TGI ([25]; read-out: pTGI (converted)) was 10.7 µM, the GI50 ([26]; read-out: GI50) was 3.72 µM and the CC50 [26, 31] was over 100 µM. It also gave a TGI ([26]; read-out: TGI) of over 100 µM, a GI50 ([26]; read-out: pGI50 (converted)) of 3.72 µM and a CC50 [26, 32] of over 100 µM. For the same compound, the TGI ([26]; read-out: pTGI (converted)) was over 100 µM, the Activity [27] was 61.56% and the Activity [28] was 19.16%. It also gave an IC50 [29] of 0.02 µM and an IC50 [30] of 0.032 µM.
